Laboratory results as given in US10577362B2, “Substituted 2, 4-diamino-quinoline derivatives for use in the treatment of proliferative diseases” (GENOSCIENCE PHARMA, priority 2016, dated 2020).
Where a name gives a salt, the structure may show the parent alone. Read-outs that look alike come from different tables or passages of the source.

Key:
Format in all cases: cell-based, human
[1] = tested on: MOLM-14 (acute myeloid leukemia) cell line; experiment: CellTiter-Glo luminescent cell viability assay, MOLM-14; conditions: for viability at 4 µM: MOLM-14, compound at 4 μM; for viability at 4 µM / viability at 10 µM: 72 h; for viability at 10 µM: MOLM-14, compound at 10 μM; for EC50: MOLM-14 cell line, 72 h incubation, CellTiter-Glo, read-out: EC50, growth inhibition of MOLM-14
Procedure, shortened: (§1)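 Adherent lines plated overnight, MOLM-14 (suspension) 1 h before dosing, in medium with 10% FBS at 37 °C, 5% CO2. Compounds added at varying concentrations for 72 h; CellTiter-Glo luminescence read, EC50 as dose reducing signal to 50% of diluent-treated cells, at least duplicate points.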

[2] = tested on: A375 (malignant melanoma) cell line; experiment: CellTiter-Glo luminescent cell viability assay, A375; conditions: for viability at 4 µM: A375, compound at 4 μM; for viability at 4 µM / viability at 10 µM: 72 h; for viability at 10 µM: A375, compound at 10 μM; for EC50: A375 cell line, 72 h incubation, CellTiter-Glo, read-out: EC50, growth inhibition of A375
Procedure, shortened: (§2)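 72 h compound exposure, 37 °C, 5% CO2, 10% FBS medium; ATP luminescence read after 30 min RT equilibration. Viability as % of H2O/DMSO diluent control; EC50 = dose giving 50% of control signal. Duplicate points minimum.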

[3] = tested on: HCT-116 (colorectal carcinoma) cell line; experiment: CellTiter-Glo luminescent cell viability assay, HCT-116; conditions: for viability at 4 µM: HCT-116, compound at 4 μM; for viability at 4 µM / viability at 10 µM: 72 h; for viability at 10 µM: HCT-116, compound at 10 μM; for EC50: HCT-116 cell line, 72 h incubation, CellTiter-Glo, read-out: EC50, growth inhibition of HCT-116
Procedure, shortened: as §2

[4] = tested on: Huh7 (hepatocellular carcinoma) cell line; experiment: CellTiter-Glo luminescent cell viability assay, Huh7; conditions: for viability at 4 µM: Huh7, compound at 4 μM; for viability at 4 µM / viability at 10 µM: 72 h; for viability at 10 µM: Huh7, compound at 10 μM; for EC50: Huh7 cell line, 72 h incubation, CellTiter-Glo, read-out: EC50, growth inhibition of Huh7
Procedure, shortened: as §1

[5] = tested on: 786-O (renal adenocarcinoma) cell line; experiment: CellTiter-Glo luminescent cell viability assay, 786-O; conditions: for EC50: 786-O cell line, 72 h incubation, CellTiter-Glo, read-out: EC50, growth inhibition of 786-O; for viability at 4 µM / viability at 10 µM: 786-O, 72 h; for viability at 4 µM: compound at 4 μM; for viability at 10 µM: compound at 10 μM
Procedure, shortened: as §2

[6] = tested on: HepG2 (hepatocellular carcinoma) cell line; experiment: CellTiter-Glo luminescent cell viability assay, HepG2; conditions: for viability at 4 µM / viability at 10 µM: HepG2, HepG, 72 h; for viability at 4 µM: compound at 4 μM; for viability at 10 µM: compound at 10 μM; for EC50: HepG2 cell line, 72 h incubation, CellTiter-Glo, read-out: EC50, growth inhibition of HepG2
Procedure, shortened: as §1

| SMILES | EC50 ([1]; Homo sapiens) [µM] | EC50 ([2]; Homo sapiens, A-375) [µM] | EC50 ([3]; Homo sapiens) [µM] | EC50 ([4]; Homo sapiens, Huh-7) [µM] | EC50 ([5]; Homo sapiens, 786-0) [µM] | EC50 ([6]; Homo sapiens) [µM] | viability at 4 µM ([1]; Homo sapiens) [%] | viability at 10 µM ([1]; Homo sapiens) [%] | viability at 4 µM ([2]; Homo sapiens, A-375) [%] | viability at 10 µM ([2]; Homo sapiens, A-375) [%] | viability at 4 µM ([3]; Homo sapiens) [%] | viability at 10 µM ([3]; Homo sapiens) [%] | viability at 4 µM ([4]; Homo sapiens, Huh-7) [%] | viability at 10 µM ([4]; Homo sapiens, Huh-7) [%] | viability at 4 µM ([5]; Homo sapiens, 786-0) [%] | viability at 10 µM ([5]; Homo sapiens, 786-0) [%] | viability at 4 µM ([6]; Homo sapiens) [%] | viability at 10 µM ([6]; Homo sapiens) [%] | further results |
| --- | --- | --- | --- | --- | --- | --- | --- | --- | --- | --- | --- | --- | --- | --- | --- | --- | --- | --- | --- |
| Cc1cc(C)nc(Nc2ccc(Nc3nc4ccccc4c(N4CCC(NC(C)(C)C)CC4)c3C#N)cc2)n1 [Compound 3276CN, 2-{4-[(4,6-dimethylpyrimidin-2-yl)amino]phenylamino}-3-cyano-4-[4-(tert-butylamino)piperidin-1-yl]quinoline] | 0.5 to 5 | 0.5 to 5 | 0.5 to 5 | 0.5 to 5 | 0.5 to 5 | 0.5 to 5 | 51.9 | 1 | 2.9 | 1 | 0.9 | 0.9 | 41.2 | 1 | 4.5 | 0.9 | 38.5 | 0.9 |  |
| OC[C@@H]1CCCN1c1cc(NCc2ccc(Cl)cc2)nc2ccccc12 [Compound 2308, (2S) 2-(4-chlorobenzylamino)-4-[2-(hydroxymethyl)pyrrolidin-1-yl]quinoline, hydrochloride] |  |  |  |  |  |  |  |  |  |  |  |  |  |  |  |  |  |  | EC50 [1]: 0.5 to 5 µM; EC50 [2]: 0.5 to 5 µM; EC50 [3]: 5 to 10 µM; EC50 [4]: 0.5 to 5 µM; EC50 [5]: 5 to 10 µM; EC50 [6]: 0.5 to 5 µM |
| Cc1cc(F)c2nc(NCc3ccc(Cl)cc3)cc(N3CCC(NC(C)(C)C)CC3)c2c1 [Compound 568, 2-(4-chlorobenzylamino)-4-[4-(tert-butylamino)piperidin-1-yl]-6-methyl-8-fluoroquinoline] | 0.5 to 5 | 0.5 to 5 | 0.5 to 5 | 5 to 10 | 0.5 to 5 | 0.5 to 5 |  |  |  |  |  |  |  |  |  |  |  |  |  |
| CCN(Cc1ccc(Cl)cc1)c1cc(N2CCC(NC(C)(C)C)CC2)c2ccccc2n1 [Compound 214, 2-(N-4-chlorobenzyl-N-ethylamino)-4-[4-(tert-butylamino)-piperidin-1-yl]-quinoline hydrochloride] |  |  |  |  |  |  | 26.8 | 16.4 | 0.4 | 0.4 | 0.2 | 0.3 | 43 | 0.4 | 6.5 | 0.4 | 0.3 | 0.4 |  |
| CC(C)(C)NC1CCN(c2c(C#N)c(Nc3ccc(Cl)cc3)nc3ccccc23)CC1 [Compound 3258CN, 2-(4-chlorophenylamino)-3-cyano-4-[4-(tert-butylamino)piperidin-1-yl]quinoline] | 0.5 to 5 | 0.5 to 5 | 0.5 to 5 | 0.5 to 5 | 0.5 to 5 | 0.5 to 5 | 79.8 | 1 | 9.7 | 0.8 | 0.7 | 0.6 | 73.8 | 1.8 | 4.4 | 0.7 | 44.3 | 0.8 |  |
| CC(C)CN(Cc1ccc(Cl)cc1)c1cc(N2CCC(NC(C)(C)C)CC2)c2ccccc2n1 [Compound 220, 2-(N-4-chlorobenzyl-N-isobutylamino)-4-[4-(tert-butylamino)-piperidin-1-yl]-quinoline] |  |  |  |  |  |  | 78.9 | 52.6 | 76.3 | 0.3 | 60.9 | 0.3 | 81.5 | 0.3 | 74.6 | 0.4 | 79.6 | 31 |  |
| N#Cc1c(NCc2ccc(Cl)cc2)nc2ccccc2c1N1CCC(Oc2ccc(F)cc2)C1 (centres unmarked) [Compound 3338CN, 2-(4-chlorobenzylamino)-3-cyano-4-[3-(4-fluorophenoxy)pyrrolidin-1-yl]quinoline] |  |  |  |  |  |  | 112 | 107 | 94.9 | 93.4 | 94.3 | 87.6 | 96.9 | 101 | 93.3 | 59.4 | 98.8 | 92.2 |  |
| N#Cc1c(NCc2ccc(Cl)cc2)nc2ccccc2c1N1CCC(Oc2ccc(Cl)cc2)CC1 [Compound 3226CN, 2-(4-chlorobenzylamino)-3-cyano-4-[4-(4-chlorophenoxy)piperidin-1-yl]quinoline] |  |  |  |  |  |  | 101 | 97.8 | 97.8 | 94.1 | 96.8 | 86.8 | 117 | 109 | 96 | 89.8 | 94 | 82.8 |  |
| Cc1cc(OC2CCN(c3c(C#N)c(NCc4ccc(Cl)cc4)nc4ccccc34)CC2)no1 [Compound 2978CN, 2-(4-chlorobenzylamino)-3-cyano-4-{4-[(5-methylisoxazol-3-yl)oxy]piperidin-1-yl}quinoline] |  |  |  |  |  |  | 115 | 77.5 | 93.1 | 86.8 | 88.2 | 50.1 | 87 | 74.2 | 96.9 | 89.3 | 94.5 | 78.1 |  |

Continued, in another order:

| EC50 ([1]; Homo sapiens) [µM] | EC50 ([2]; Homo sapiens, A-375) [µM] | EC50 ([3]; Homo sapiens) [µM] | EC50 ([4]; Homo sapiens, Huh-7) [µM] | EC50 ([5]; Homo sapiens, 786-0) [µM] | EC50 ([6]; Homo sapiens) [µM] | SMILES | viability at 4 µM ([1]; Homo sapiens) [%] | viability at 10 µM ([1]; Homo sapiens) [%] | viability at 4 µM ([2]; Homo sapiens, A-375) [%] | viability at 10 µM ([2]; Homo sapiens, A-375) [%] | viability at 4 µM ([3]; Homo sapiens) [%] | viability at 10 µM ([3]; Homo sapiens) [%] | viability at 4 µM ([4]; Homo sapiens, Huh-7) [%] | viability at 10 µM ([4]; Homo sapiens, Huh-7) [%] | viability at 4 µM ([5]; Homo sapiens, 786-0) [%] | viability at 10 µM ([5]; Homo sapiens, 786-0) [%] | viability at 4 µM ([6]; Homo sapiens) [%] | viability at 10 µM ([6]; Homo sapiens) [%] | further results |
| --- | --- | --- | --- | --- | --- | --- | --- | --- | --- | --- | --- | --- | --- | --- | --- | --- | --- | --- | --- |
| 0.5 to 5 | 0.5 to 5 | 0.5 to 5 | 5 to 10 | 0.5 to 5 | 0.5 to 5 | Cc1ccc2c(N3CCC(NC(C)(C)C)CC3)cc(NCc3ccc(Cl)cc3)nc2c1F [Compound 564, 2-(4-chlorobenzylamino)-4-[4-(tert-butylamino)piperidin-1-yl]-7-methyl-8-fluoroquinoline] |  |  |  |  |  |  |  |  |  |  |  |  |  |
| 0.5 to 5 | 0.5 to 5 |  | 5 to 10 | 5 to 10 | 0.5 to 5 | Cn1ncnc1Nc1nc2ccccc2c(N2CCC(NC(C)(C)C)CC2)c1C#N [Compound 3270CN, 2-[(1-methyl-1H-1,2,4-triazol-5-yl)amino]-3-cyano-4-[4-(tert-butylamino)piperidin-1-yl]quinoline] | 33.2 | 1 | 49.2 | 31 | 47.4 | 6.3 | 79.6 | 32.3 | 52.6 | 34.7 | 37.5 | 24.1 |  |
| 0.5 to 5 | 0.5 to 5 | 5 to 10 | 0.5 to 5 | 0.5 to 5 | 0.5 to 5 | O[C@@H]1CCN(c2cc(NCc3ccc(Cl)cc3)nc3ccccc23)C1 [Compound 2988, (3R) 2-(4-chlorobenzylamino)-4-(3-hydroxypyrrolidin-1-yl)quinoline hydrochloride] |  |  |  |  |  |  |  |  |  |  |  |  |  |
| 0.5 to 5 | 0.5 to 5 | 0.5 to 5 | 0.5 to 5 | 0.5 to 5 | 0.5 to 5 | Cc1c(F)ccc2c(N3CCC(NC(C)(C)C)CC3)cc(NCc3ccc(Cl)cc3)nc12 [Compound 572, 2-(4-chlorobenzylamino)-4-[4-(tert-butylamino)piperidin-1-yl]-7-fluoro-8-methylquinoline] |  |  |  |  |  |  |  |  |  |  |  |  |  |
| 0.5 to 5 | 0.5 to 5 | 0.5 to 5 | 0.5 to 5 | 0.5 to 5 | 5 to 10 | COC(=O)c1c(NCc2ccc(Cl)cc2)nc2ccccc2c1N1CCC(NC(C)(C)C)CC1 [Compound 354, methyl 4-(4-(tert-butylamino)piperidin-1-yl)-2-(4-chlorobenzylamino) quinoline-3-carboxylate] |  |  |  |  |  |  |  |  |  |  |  |  |  |
